The test system of this experiment is LPS-activated NO production in RAW264.7 cells. In words: Inhibition of LPS-activated NO production in RAW264.7 cells (Griess assay). The class given is cell-based. The note with it: Mus musculus, LPS-activated RAW264.7 cells. The protocol: All isolated compounds (except for 14 with limited amount) were tested for their inhibition activity against LPS-activated NO production in RAW264.7 cells using the Griess assay. […] The structure of PGA2 made a more positive contribution to the anti-inflammatory activity than those of PGB2 (16 vs. 15).
The anti-inflammation activity of the isolated compounds was evaluated according to the reported procedures.
(In general: Griess reagent forms a coloured azo dye with nitrite.)

This passage reports IC50 results from PMC6723591, “Anti-Inflammatory Cembrane-Type Diterpenoids and Prostaglandins from Soft Coral Lobophytum sarcophytoides” (Marine Drugs, 2019).

Usually IC50 stands for the concentration that inhibits the measured activity by half. Lower therefore signals greater potency.

As to `CC1=CC2OCC(C)=C2CCC2(C)OC2CCC(C)(O)C=CC1` (stereo not drawn) [Compound 6], half-maximal inhibition (IC50) required 26.7 µM. Under `C=C1CC[C@@H](C(C)C)/C=C/[C@@](C)(O)C/C=C/[C@](C)(O)CC[C@@H]1O` [Compound 7, (1S,2E,4S,6E,8S,11R)-2,6,12(20)-cembratriene-4,8,11-triol] stands 17.6 µM; under `CC(=O)C=C=C1C(C)(C)C[C@H](OC(C)=O)C[C@@]1(C)O` [Compound 9, apo-9′-fucoxanthinone], 32.1 µM. Consider `CCCCCC(O)C=CC1=C(CC=CCCCC(=O)O)C(=O)CC1` (stereo not drawn) [Compound 10, (5E)-PGB2], for which the IC50 was found to be 20.4 µM. Against the preceding molecule, the IC50 is about 1.6-fold lower.

In the case of `CCCCCC(O)CCC1=C(CC=CCCCC(=O)O)C(=O)CC1` (stereo not drawn) [Compound 12, 13,14-dihydro-PGB2], the IC50 amounted to 24.8 µM. For the molecule `CCCCCC(O)CCC1=C(CC=CCCCC(=O)OC)C(=O)CC1` (stereo not drawn) [Compound 13, 13,14-dihydro-PGB2-Me], 16.1 µM corresponded to half-maximal inhibition (IC50). Against the preceding molecule, the IC50 is about 1.5-fold lower. The molecule `CCCCC[C@H](O)/C=C/C1=C(C/C=C\CCCC(=O)O)C(=O)CC1` [Compound 15, PGB2] yielded an IC50 of 15.9 µM. The IC50 values of the last two molecules are within 1.5-fold of each other. As for `CCCCC[C@H](O)/C=C/[C@H]1C=CC(=O)[C@@H]1C/C=C\CCCC(=O)O` [Compound 16, PGA2], it took 7.1 µM to reach half-maximal inhibition (IC50). `COc1ccc2c(c1)c(CC(=O)O)c(C)n2C(=O)c1ccc(Cl)cc1` [indomethacin, reference compound] yielded an IC50 of 39.8 µM.
